The values below are quoted from earlier work in patent US10300101B2, “Methods and compositions for enhancing or maintaining fertility” (Quality IP Holdings, LLC, priority 2012, dated 2019).

For data set [1], the system named is hGH levels.
Data set [2] deals with hGH levels. The following applies: subcutaneous injection of 0.06 IU in hGH deficient subjects.

Take `N=C(N)NCCC[C@H](N)C(=O)O` [arginine]: the “elevation of serum hGH levels” value in the data set on hGH levels [1] (30 g intravenous, in males) was 8.6 fold. The “increase in hGH levels” value with hGH levels [1] (intravenous infusion of 183 mg/kg body weight in females) is recorded as > 20 fold.

Take “hGH: human growth hormone given by subcutaneous injection to hGH deficient subjects”: in the data set on hGH levels [2], the “mean levels of hGH reached” value is 0.4 ng/mL.
